Test results from patent US20090163586A1, “Bis-(Sulfonylamino) Derivatives in Therapy 205” (AstraZeneca AB, priority 2007, published 2009).

target: T1, human mPGES-1 (Homo sapiens, UniProt O14684); experiment: Microsomal prostaglandin E synthase biochemical assay; details: microsome preparation containing human mPGES-1; PGH2 10.8 μM, GSH 2.5 mM, pH 6.8; PGE2 by HTRF; average of at least n=2
T1 sequence (O14684 1-152): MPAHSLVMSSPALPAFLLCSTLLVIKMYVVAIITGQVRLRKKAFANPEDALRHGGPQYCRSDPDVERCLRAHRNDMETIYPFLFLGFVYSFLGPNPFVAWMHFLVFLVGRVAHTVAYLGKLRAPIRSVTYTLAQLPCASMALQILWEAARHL
Experimental: Compounds were tested as inhibitors of microsomal prostaglandin E synthase activity in microsomal prostaglandin E synthase assays and whole cell assays. These assays measure prostaglandin E2 (PGE2) synthesis which is taken as a measure of prostaglandin E synthase activity. Microsomal prostaglandin E synthase biochemical assays used microsomal prostaglandin E synthase-1 in microsomal preparations. The source of the microsomes can be for example interleukin-1β-stimulated human A549 cells (which express human mPGES-1) or Sf9 cells transfected with plasmids encoding human mPGES-1 cDNA. The whole blood assay [described by Patrignani, P. et al., Journal of Pharmacology and Experimental Therapeutics, 1994, vol. 271, pp 1705-1712] was used as the whole cell assay for testing the compounds. Whole blood provides a protein and cell rich milieu for the study of biochemical efficacy of anti-inflammatory compounds such as prostaglandin synthase inhibitors. To study the inhibitory activities of these compounds, human blood was stimulated with lipopolysaccharide (LPS) for typically 16 hours to induce mPGES-1 expression, after which the concentration of produced PGE2 was measured by competitive-immuno assay (homogeneous time-resolved fluorescence, HTRF) as read out for effectiveness against mPGES-1-dependent PGE2 production.
Microsomal Prostaglandin E Synthase Biochemical Assay
A solution of test compound was added to a diluted microsome preparation containing human mPGES-1 and pre-incubated for 15 minutes in potassium phosphate buffer pH 6.8 with cofactor glutathione (GSH). Corresponding solutions without test compound were used as positive controls, and corresponding solutions without test compound and without microsomes were used as negative controls. The enzymatic reaction was then started by addition of the substrate PGH2 in an organic solution (dry acetonitrile).
The typical reaction conditions of the enzymatic reaction were thus: Test compound: ranging from 60 μM to 0.002 μM, or zero in positive and negative controls; potassium phosphate buffer pH 6.8: 50 mM; GSH: 2.5 mM; mPGES-1-containing microsomes: 2 μg/mL (sample and positive controls) or 0 μg/mL (negative control); PGH2: 10.8 μM; Acetonitrile: 7.7% (v/v); DMSO: 0.6% (v/v). The reaction was stopped after one minute by adding an acidic solution (pH 1.9) of ferric chloride and citrate (final concentrations 7 mM and 47 mM respectively), by which the PGH2 was sequestered (the PGH2 is reduced to mainly 12-hydroxy heptadecatrineoic acid (12-HHT) which is not detected by the subsequent PGE2 detection step). The resulting solution was then pH neutralized by addition of potassium phosphate buffer, prior to diluting an aliquot of the resulting solution in a weak potassium phosphate buffer (50 mM, pH 6.8) containing 0.2% BSA (w/v). [Adapted from Jacobsson et al., Proc. Natl. Acad. Sci. USA, 1999, vol. 96, pp. 7220-7225]The PGE2 formed was quantified by use of a commercial HTRF based kit (catalogue #62PG2PEC or #62P2APEC from Cisbio International). 100% activity was defined as the PGE2 production in positive controls subtracted by the PGE2 production in the negative controls. IC50 values were then determined using standard procedures.
The potency is expressed as IC50 and the value indicated is an average of at least n=2.

IC50 [nM] | Compound
6200 | NS(=O)(=O)c1c(F)cccc1NS(=O)(=O)/C=C/c1cccc(C(F)(F)F)c1 [Example 66, 2-Fluoro-6-[[(E)-2-[3-(trifluoromethyl)phenyl]ethenyl]sulfonylamino]-benzenesulfonamide]
6400 | NS(=O)(=O)c1ccc(F)cc1NS(=O)(=O)/C=C/c1ccccc1F [Example 67, 4-Fluoro-2-[[(E)-2-(2-fluorophenyl)ethenyl]sulfonylamino]benzenesulfonamide]
9100 | Cc1ccc(NS(=O)(=O)/C=C/c2cccc(C(F)(F)F)c2)c(S(N)(=O)=O)c1 [Example 68, 5-Methyl-2-[[(E)-2-[3-(trifluoromethyl)phenyl]ethenyl]sulfonylamino]-benzenesulfonamide]
270 | NS(=O)(=O)c1ccccc1NS(=O)(=O)CCc1ccc(C2CCCC2)cc1 [Example 69, 2-[2-(4-Cyclopentylphenyl)ethylsulfonylamino]benzenesulfonamide]
220 | CC(C)(C)c1ccc(CCS(=O)(=O)Nc2ccccc2S(N)(=O)=O)cc1 [Example 70, 2-[2-(4-Tert-butylphenyl)ethylsulfonylamino]benzenesulfonamide]
300 | CC(C)(C)c1ccc(CCS(=O)(=O)Nc2cc(F)ccc2S(N)(=O)=O)cc1 [Example 71, 4-Fluoro-2-[2-(4-tert-butylphenyl)ethylsulfonylamino]benzenesulfonamide]
490 | NS(=O)(=O)c1ccccc1NS(=O)(=O)CCc1ccc(Cl)cc1 [Example 72, 2-[2-(4-Chlorophenyl)ethylsulfonylamino]benzenesulfonamide]
290 | NS(=O)(=O)c1ccccc1NS(=O)(=O)/C=C/c1ccc(Cl)cc1 [Example 73, 2-[[(E)-2-(4-Chlorophenyl)ethenyl]sulfonylamino]benzenesulfonamide]
9800 | NS(=O)(=O)c1ccccc1NS(=O)(=O)CCc1ccccc1 [Example 74, 2-(Phenethylsulfonylamino)benzenesulfonamide]
2600 | NS(=O)(=O)c1ccccc1NS(=O)(=O)/C=C/c1ccccc1 [Example 75, 2-[[(E)-2-Phenylethenyl]sulfonylamino]benzenesulfonamide]
1200 | NS(=O)(=O)c1ccccc1NS(=O)(=O)CCc1ccccc1Cl [Example 76, 2-[2-(2-Chlorophenyl)ethylsulfonylamino]benzenesulfonamide]
3100 | COc1ccc(/C=C/S(=O)(=O)Nc2ccccc2S(N)(=O)=O)cc1 [Example 77, 2-[[(E)-2-(4-Methoxyphenyl)ethenyl]sulfonylamino]benzenesulfonamide]
350 | NS(=O)(=O)c1ccc(F)cc1NS(=O)(=O)/C=C/c1ccc(Cl)cc1 [Example 78, 2-[[(E)-2-(4-Chlorophenyl)ethenyl]sulfonylamino]-4-fluoro-benzenesulfonamide]
9900 | CC(CS(=O)(=O)Nc1ccccc1S(N)(=O)=O)c1ccccc1 (stereo not shown) [Example 79, 2-(2-Phenylpropylsulfonylamino)benzenesulfonamide]
570 | NS(=O)(=O)c1c(F)cccc1NS(=O)(=O)/C=C/c1ccc(Cl)cc1 [Example 80, 2-[[(E)-2-(4-Chlorophenyl)ethenyl]sulfonylamino]-6-fluoro-benzenesulfonamide]
2900 | NS(=O)(=O)c1ccccc1NS(=O)(=O)/C=C/c1c(Cl)cccc1Cl [Example 81, 2-[[(E)-2-(2,6-Dichlorophenyl)ethenyl]sulfonylamino]benzenesulfonamide]
7300 | Cc1ccc(/C=C/S(=O)(=O)Nc2ccccc2S(N)(=O)=O)cc1 [Example 82, 2-[[(E)-2-(4-Methylphenyl)ethenyl]sulfonylamino]benzenesulfonamide]

IC50 [nM] | Compound
430 | COc1ccccc1/C=C/S(=O)(=O)Nc1ccccc1S(N)(=O)=O [Example 83, 2-[[(E)-2-(2-Methoxyphenyl)ethenyl]sulfonylamino]benzenesulfonamide]
190 | NS(=O)(=O)c1ccccc1NS(=O)(=O)/C=C/c1ccc2ccccc2c1 [Example 84, 2-[[(E)-2-Naphthalen-2-ylethenyl]sulfonylamino]benzenesulfonamide]
800 | NS(=O)(=O)c1ccc(F)cc1NS(=O)(=O)CCc1ccc(Cl)cc1 [Example 85, 2-[2-(4-Chlorophenyl)ethylsulfonylamino]-4-fluoro-benzenesulfonamide]
700 | C/C(=C\S(=O)(=O)Nc1ccccc1S(N)(=O)=O)c1ccc(Cl)cc1 [Example 86, 2-[[(E)-2-(4-Chlorophenyl)prop-1-enyl]sulfonylamino]benzenesulfonamide]
2400 | C=C(CS(=O)(=O)Nc1ccccc1S(N)(=O)=O)c1ccc(Cl)cc1 [Example 87, 2-[2-(4-Chlorophenyl)prop-2-enylsulfonylamino]benzenesulfonamide]
1300 | NS(=O)(=O)c1c(F)cccc1NS(=O)(=O)/C=C/c1ccc2ccccc2c1 [Example 88, 2-Fluoro-6-[[(E)-2-naphthalen-2-ylethenyl]sulfonylamino]benzenesulfonamide]
2800 | NS(=O)(=O)c1c(F)cccc1NS(=O)(=O)/C=C/c1ccccc1C(F)(F)F [Example 89, 2-Fluoro-6-[[(E)-2-[2-(trifluoromethyl)phenyl]ethenyl]sulfonylamino]-benzenesulfonamide]
870 | NS(=O)(=O)c1c(F)cccc1NS(=O)(=O)/C=C/c1ccc(C(F)(F)F)cc1 [Example 90, 2-Fluoro-6-[[(E)-2-[4-(trifluoromethyl)phenyl]ethenyl]sulfonylamino]-benzenesulfonamide]
310 | NS(=O)(=O)c1c(F)cccc1NS(=O)(=O)/C=C/c1ccc(Br)cc1 [Example 91, 2-[[(E)-2-(4-Bromophenyl)ethenyl]sulfonylamino]-6-fluoro-benzenesulfonamide]
91 | NS(=O)(=O)c1ccc(F)cc1NS(=O)(=O)/C=C/c1ccc2ccccc2c1 [Example 92, 4-Fluoro-2-[[(E)-2-naphthalen-2-ylethenyl]sulfonylamino]benzenesulfonamide]
650 | NS(=O)(=O)c1ccc(F)cc1NS(=O)(=O)/C=C/c1ccccc1C(F)(F)F [Example 93, 4-Fluoro-2-[[(E)-2-[2-(trifluoromethyl)phenyl]ethenyl]sulfonylamino]-benzenesulfonamide]
650 | NS(=O)(=O)c1ccc(F)cc1NS(=O)(=O)/C=C/c1ccc(C(F)(F)F)cc1 [Example 94, 4-Fluoro-2-[[(E)-2-[4-(trifluoromethyl)phenyl]ethenyl]sulfonylamino]-benzenesulfonamide]
310 | NS(=O)(=O)c1ccc(F)cc1NS(=O)(=O)/C=C/c1ccc(Br)cc1 [Example 95, 2-[[(E)-2-(4-Bromophenyl)ethenyl]sulfonylamino]-4-fluoro-benzenesulfonamide]
4800 | Cc1ccc(NS(=O)(=O)/C=C/c2ccc3ccccc3c2)c(S(N)(=O)=O)c1 [Example 96, 5-Methyl-2-[[(E)-2-naphthalen-2-ylethenyl]sulfonylamino]benzenesulfonamide]
3400 | Cc1ccc(NS(=O)(=O)/C=C/c2ccc(C(F)(F)F)cc2)c(S(N)(=O)=O)c1 [Example 97, 5-Methyl-2-[[(E)-2-[4-(trifluoromethyl)phenyl]ethenyl]sulfonylamino]-benzenesulfonamide]
680 | Cc1ccc(NS(=O)(=O)/C=C/c2ccc(Br)cc2)c(S(N)(=O)=O)c1 [Example 98, 2-[[(E)-2-(4-Bromophenyl)ethenyl]sulfonylamino]-5-methyl-benzenesulfonamide]
290 | NS(=O)(=O)c1cc(F)ccc1NS(=O)(=O)/C=C/c1ccc2ccccc2c1 [Example 99, 5-Fluoro-2-[[(E)-2-naphthalen-2-ylethenyl]sulfonylamino]benzenesulfonamide]
